{"source": "patent US20100105723A1", "about": "“5-PHENYL-6-PYRIDIN-4-YL-1,3-DIHYDRO-2H-IMIDAZO[4,5-b]PYRIDIN-2-ONE DERIVATIVES USEFUL AS A2B ADENOSINE RECEPTOR ANTAGONISTS” (priority 2006, published 2010)", "key": {"human A2B receptor": {"target": "T1, human A2B receptor (Homo sapiens, UniProt P29275)", "T1 construct": "host or cells: HEK293", "T1 sequence (P29275 1-332)": "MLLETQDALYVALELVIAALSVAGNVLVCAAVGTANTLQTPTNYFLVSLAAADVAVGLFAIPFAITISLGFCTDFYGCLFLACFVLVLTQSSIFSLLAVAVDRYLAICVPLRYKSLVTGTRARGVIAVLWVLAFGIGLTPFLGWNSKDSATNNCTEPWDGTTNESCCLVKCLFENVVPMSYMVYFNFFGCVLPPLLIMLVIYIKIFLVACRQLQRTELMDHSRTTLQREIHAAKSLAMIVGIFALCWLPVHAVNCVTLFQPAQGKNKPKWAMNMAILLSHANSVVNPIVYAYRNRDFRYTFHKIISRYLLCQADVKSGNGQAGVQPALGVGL", "test": "A2B radioligand filtration binding assay ([3H]-DPCPX competition)", "conditions": "membranes from HEK293 cells expressing human A2B receptor; mean of at least two independent determinations; read-out: Ki hA2B", "experimental": "For A2B, competition assays were carried out in filtration binding assay, incubating in polypropylene 96 well-plates (n^o 267245, NUNC) containing 2 μL of either 1% DMSO solution, test compound or 100 μM 5′NECA (SIGMA E-2387) for non-specific binding, 100 μg of A2B-membranes prepared from HEK293 cells stably expressing the human A2B receptor (Euroscreen ES-013-C) and 35 nM [^3H]-DPCPX (TRK1064, 128 Ci/mmol, Amersham), in a total volume of 200 μl of buffer A+2 Ul/ml adenosine deaminase, for 60 minutes at room temperature."}, "human A1 receptor": {"target": "T2, human A1 receptor (Homo sapiens, UniProt P30542)", "T2 construct": "host or cells: CHO", "T2 sequence (P30542 1-326)": "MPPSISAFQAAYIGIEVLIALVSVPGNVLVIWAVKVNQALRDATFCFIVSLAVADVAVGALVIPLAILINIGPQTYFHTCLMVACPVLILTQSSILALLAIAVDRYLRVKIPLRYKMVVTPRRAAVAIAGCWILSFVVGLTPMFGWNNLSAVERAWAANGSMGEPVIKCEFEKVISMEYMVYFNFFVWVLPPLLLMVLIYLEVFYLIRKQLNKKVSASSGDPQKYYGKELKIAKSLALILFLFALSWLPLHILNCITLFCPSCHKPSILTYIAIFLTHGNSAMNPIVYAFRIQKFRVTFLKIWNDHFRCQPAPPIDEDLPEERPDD", "test": "A1 radioligand filtration binding assay (3H-DPCPX)", "conditions": "membranes from CHO cells transfected with human A1 receptor; mean of at least two independent determinations; read-out: Ki hA1", "experimental": "For A1 receptors a filtration binding assay was performed with 2 nM ^3H-DPCPX, […] unlabelled R-PIA, membranes from CHO cells transfected with human A1 receptor (Euroscreen ES-010-C) and incubated 90 min. at room temperature in Hepes 20 mM pH 7.4, NaCl 100 mM, MgCl2 10 mM and 2 U/ml adenosin deaminase."}, "human A3 receptor": {"target": "T3, human A3 receptor (Homo sapiens, UniProt P0DMS8)", "T3 construct": "expressed in transfected cells; host or cells: HeLa", "T3 sequence (P0DMS8 1-318)": "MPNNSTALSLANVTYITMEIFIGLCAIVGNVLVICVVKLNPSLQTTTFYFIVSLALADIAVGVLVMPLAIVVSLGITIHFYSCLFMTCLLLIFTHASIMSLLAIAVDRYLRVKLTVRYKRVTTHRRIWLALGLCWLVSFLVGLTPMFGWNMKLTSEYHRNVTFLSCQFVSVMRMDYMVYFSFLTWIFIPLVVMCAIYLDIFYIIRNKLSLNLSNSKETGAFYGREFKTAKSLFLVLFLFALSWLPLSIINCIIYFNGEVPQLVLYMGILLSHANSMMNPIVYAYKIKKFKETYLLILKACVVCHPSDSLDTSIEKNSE", "test": "A3 radioligand filtration binding assay (3H-NECA)", "conditions": "for inhibition at 1 µM: at indicated concentration (1000 nM), read-out: % inhibition of radioligand binding at indicated concentration, hA3; for Ki: membranes from HeLa cells transfected with human A3 receptor, read-out: Ki hA3", "experimental": "For A3 receptors, in filtration binding assay, 30 nM ^3H-NECA, […] unlabelled R-PIA, […] membranes from HeLa cells transfected with human A3 receptor, incubated 3 h. at room temperature in TrisHCl 50 mM pH 7.4, EDTA 1 mM, MgCl2 5 mM, 2 U/ml adenosin deaminase."}, "human A2A receptor": {"target": "T4, human A2A receptor (Homo sapiens, UniProt P29274)", "T4 construct": "expressed in transfected cells; host or cells: HeLa", "T4 sequence (P29274 whole entry)": "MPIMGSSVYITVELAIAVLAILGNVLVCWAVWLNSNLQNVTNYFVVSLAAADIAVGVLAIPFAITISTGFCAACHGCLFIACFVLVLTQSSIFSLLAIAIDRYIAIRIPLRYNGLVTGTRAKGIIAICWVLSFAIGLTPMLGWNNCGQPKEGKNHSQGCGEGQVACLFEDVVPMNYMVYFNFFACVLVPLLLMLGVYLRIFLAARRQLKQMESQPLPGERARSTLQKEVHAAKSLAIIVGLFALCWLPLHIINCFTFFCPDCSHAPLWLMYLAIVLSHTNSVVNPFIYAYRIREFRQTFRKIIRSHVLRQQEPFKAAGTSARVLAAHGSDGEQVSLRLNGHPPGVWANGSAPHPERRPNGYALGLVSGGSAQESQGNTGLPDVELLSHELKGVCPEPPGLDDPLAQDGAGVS", "test": "A2A radioligand SPA binding assay (3H-ZM241385)", "conditions": "for Ki: membranes from HeLa cells transfected with human A2A receptor, mean of at least two independent determinations, read-out: Ki hA2A", "experimental": "For A2A receptors binding technology was SPA (Amhersham) with 3,3 nM ^3H-ZM241385, […] unlabelled NECA, membranes from HeLa cells transfected with human A2A receptor, incubated 1 h. at room temperature with 1 mg YSi-WGA beads in TrisHCl 50 mM pH 7.4, EDTA 1 mM, MgCl2 10 mM, 2 U/ml adenosin deaminase."}}}
{"compound": "O=c1[nH]c2cc(-c3ccncc3F)c(-c3ccccc3F)nc2[nH]1", "note": "[Example 1, 5-(2-Fluorophenyl)-6-(3-fluoropyridin-4-yl)-1,3-dihydro-2H-imidazo[4,5-b]pyridin-2-one]", "values": [{"measurement": "Ki", "setting": "human A2B receptor", "value": 0.9, "unit": "nM"}, {"measurement": "Ki", "setting": "human A1 receptor", "value": 35, "unit": "nM"}, {"measurement": "inhibition at 1 µM", "setting": "human A3 receptor", "value": 19, "unit": "%"}, {"measurement": "Ki", "setting": "human A3 receptor", "value": "> 1000", "unit": "nM"}, {"measurement": "Ki", "setting": "human A2A receptor", "value": 721, "unit": "nM"}]}
{"compound": "O=c1[nH]c2cc(-c3ccncc3Cl)c(-c3ccccc3F)nc2[nH]1", "note": "[Example 2, 6-(3-Chloropyridin-4-yl)-5-(2-fluorophenyl)-1,3-dihydro-2H-imidazo[4,5-b]pyridin-2-one]", "values": [{"measurement": "Ki", "setting": "human A2B receptor", "value": 1.8, "unit": "nM"}, {"measurement": "Ki", "setting": "human A1 receptor", "value": 76, "unit": "nM"}, {"measurement": "inhibition at 1 µM", "setting": "human A3 receptor", "value": 22, "unit": "%"}, {"measurement": "Ki", "setting": "human A3 receptor", "value": "> 1000", "unit": "nM"}, {"measurement": "Ki", "setting": "human A2A receptor", "value": 449, "unit": "nM"}]}
{"compound": "O=c1[nH]c2cc(-c3c(F)cncc3F)c(-c3ccccc3F)nc2[nH]1", "note": "[Example 3, 6-(3,5-Difluoropyridin-4-yl)-5-(2-fluorophenyl)-1,3-dihydro-2H-imidazo[4,5-b]pyridin-2-one]", "values": [{"measurement": "Ki", "setting": "human A2B receptor", "value": 1.1, "unit": "nM"}, {"measurement": "Ki", "setting": "human A1 receptor", "value": 632, "unit": "nM"}, {"measurement": "inhibition at 1 µM", "setting": "human A3 receptor", "value": 18, "unit": "%"}, {"measurement": "Ki", "setting": "human A3 receptor", "value": "> 1000", "unit": "nM"}, {"measurement": "inhibition at 2.5 µM", "setting": "human A2A receptor; at indicated concentration (2500 nM), read-out: % inhibition of radioligand binding at indicated concentration, hA2A", "value": 6, "unit": "%"}, {"measurement": "Ki", "setting": "human A2A receptor", "value": "> 2500", "unit": "nM"}]}
